Measurements reported in US12247973B2, “Plasma membrane citrate transporter for use in the diagnosis and treatment of cancer” (Universitätsklinikum Regensburg, priority 2014, dated 2025).

Assays:
PC-3M cells [1] = test: Glucose uptake and lactate release in media of PC-3M cells; assay type: cell-based, human; conditions: 200 μM citrate, 24 h
Method: (§1) FIG. 3. Glycolytic activity and amino acid release. (A) Amount of glucose consumed and lactate released by PC-3M cells grown for 24 h with or without 200 μM citrate. (**P<0.01; n=5). (B) Concentrations of glycine, alanine and proline in the supernatants of PC-3M cells grown for 72 h with or without 200 μM citrate. (*P<0.05, **P<0.01; n=5). (C) Influence of extracellular citrate on the intracellular ratio of 13C-labeled to unlabelled free amino acids. PC-3M cells were incubated for 72h in media supplemented with [U-^13C]glucose with or without 200 μM unlabelled citrate, the ratio of ^13C incorporation into amino acids is shown. (*P<0.05, ***P<0.005; n=5). (D) Cell division in the presence or absence of extracellular citrate under normoxic conditions determined by flow cytometry. (*P<0.05, **P<0.01; n=6).
To assess glycolysis the inventors measured (unlabelled) glucose uptake and lactate release in the media from PC-3M cells incubated±200 μM citrate for 24 h. […] This effect is most likely related to increased conversion of pyruvate to lactate because of decreased mitochondrial citrate synthesis.
Metabolites were extracted with 80% methanol and measured by HPLC-ESI-MS/MS on an AB SCI EX (Framingham, MA, USA) Q TRAP™ 4000 system. […] Lactate and glucose in the media were measured as previously described^27.

normal PNT2-C2 cells = test: ROS synthesis by flow cytometry in PNT2-C2 cells; assay type: cell-based, human; conditions: extracellular citrate
Method: FIG. 2. Impact of extracellular citrate on Krebs cycle activity. PC-3M cells were incubated for 72 h with 25 mM [U-13C]glucose with or without the addition of 200 μM unlabelled citrate. (A) Differences in the ratio of uniform ^13C incorporation into fully labelled Krebs cycle intermediates. (*P<0.05, ***P<0.005; n=5). (B) Differences in ROS synthesis determined by flow cytometry for PC-3M (left) and PNT2-C2 (right) cells. Cells were incubated in media containing FCS, dialysed FCS+200 μM citrate, or dialysed serum only. Shown are geometric means±SD. (*P<0.05; n=6-9). […] Changes in mCiC in mitochondrial protein derived from PNT2-C2 cells was also determined under normoxic conditions (right). […]
Changes in Krebs cycle activity were also determined by measuring the absolute amounts determined as a normalized response of the studied substrates (unlabelled and total ^13C depicting all substrates with any number of labelled carbons) in the presence or absence of unlabelled extracellular citrate (FIG. 7). […] Using flow cytometry the inventors also determined that ROS levels in PC-3M cells grown with extracellular citrate were decreases by about 20%, compared to cells grown in citrate-depleted dialysed serum (FIG. 2B); use of normal non-dialysed serum also reduces ROS levels. […]
Studies were performed as before^28. […] ROS production was detected with dihydrorhodamine 123 (Molecular Probes, Darmstadt, Germany). […]

PC-3M cells [2] = test: Flow cytometry-based cell division (cell cycle) study; set-up: species or system human; conditions: PC-3M cells cultured with supplemented citrate, normoxic
Method: as §1
An increase in the synthesis of amino acids in the presence of extracellular citrate prompted cell division testing. […] Therefore, metabolic changes induced by extracellular citrate affect metabolism to an extent that impacts cellular processes such as cell division.
Studies were performed as before^28. […] ROS production was detected with dihydrorhodamine 123 (Molecular Probes, Darmstadt, Germany). […] At least 10,000 live cells were measured per sample. Dead cells were detected using the Aqua Live/Dead cell kit (Molecular Probes).

[3] = system: human prostate cancer PC-3M cells; test: Survival of PC-3M cells under stress conditions, MTT assay; assay type: cell-based; conditions: serum-free media with 0.5 g/L glucose
Method: FIG. 16. Metastatic human prostate cancer PC-3M cells were grown in RPMI media supplemented with 0.5 g/L glucose and glutamine. Their survival rate was measured after 48 h and 72 h using an MTT assay. The control depicts survival of the cells with no extracellular citrate or glutamate.
4. Effect of gluconate on the survival of human prostate cancer PC-3M cells (16)

mCiC mRNA = test: RealTime PCR, mCiC mRNA expression in PC-3M cells; assay type: cell-based, human; conditions: media with citrate plus 5 mM gluconate vs citrate only
Method: (§2) FIG. 15. Metastatic human prostate cancer PC-3M cells were grown with extracellular citrate in the presence or absence of gluconate (5 mM). RealTime PCR was performed to assess changes to the mRNA expression level of pmCiC and mCiC.
(§3) 3. Effects of extracellular gluconate on pmCiC mRNA expression (FIG. 15)
(§4) We have studied the effect of gluconate in the extracellular media supplemented with citrate on the expression changes of pmCiC and mCiC as compared to the control conditions where the cells were incubated with extracellular citrate only. […] On the other hand, there was a significant mCiC mRNA increase, which would indicate increased mitochondrial activity to maintain intracellular citrate level.

[4] = system: human prostate cancer PC-3M cells; test: Patch clamp, citrate-induced current in PC-3M cells; assay type: cell-based
Method: (§5) FIG. 14. Patch clamp recordings were performed on PC-3M (A) and PNT2-C2 (B) cells. […] Importantly, reduction in citrate-induced current in the presence of gluconate was irreversible. […] The effect of reduced citrate-induced current was greater in the case of PC-3M cells versus PNT2-C2 cells.
(§6) 2. Patch clamp on human prostate cancer PC-3M and benign PNT2-C2 cells (FIG. 14)
(§7) Extracellular application of citrate induced inward current in both cell lines as described earlier. […] As in the case of oocytes, gluconate inhibition of citrate-induced current was irreversible. Repeated application of citrate on PC-3M cells has been previously shown not to cause any reduction in citrate current (Mycielska et al., 2005).

pmCiC mRNA = test: RealTime PCR, pmCiC mRNA expression in PC-3M cells; assay type: cell-based, human; conditions: media with citrate plus 5 mM gluconate vs citrate only
Method: as §2, §3, §4

pmCiC = molecular target: T1, pmCiC (Homo sapiens, UniProt P53007); test: pmCiC expressed in oocytes, two electrodes voltage clamp, citrate-induced current; assay type: cell-based
T1 construct: expressed in transfected cells
Method: FIG. 13. Oocytes were injected with either pmCiC cDNA (A) or water (B).
1. pmCiC expression in oocytes—two electrodes voltage clamp (FIG. 13)
We have expressed pmCiC in oocytes and induced citrate inward current by introducing citrate into extracellular media. […] This reduction was irreversible, as subsequent application of citrate after gluconate removal from the media was not able to restore the primary response.

benign PNT2-C2 cells = test: Patch clamp, citrate-induced current in PNT2-C2 cells; assay type: cell-based, human; conditions: 10 mM gluconate, 10 mM citrate
Method: as §5, §6, §7

T1 sequence (P53007 with tags, fused parts or gaps limits assumed): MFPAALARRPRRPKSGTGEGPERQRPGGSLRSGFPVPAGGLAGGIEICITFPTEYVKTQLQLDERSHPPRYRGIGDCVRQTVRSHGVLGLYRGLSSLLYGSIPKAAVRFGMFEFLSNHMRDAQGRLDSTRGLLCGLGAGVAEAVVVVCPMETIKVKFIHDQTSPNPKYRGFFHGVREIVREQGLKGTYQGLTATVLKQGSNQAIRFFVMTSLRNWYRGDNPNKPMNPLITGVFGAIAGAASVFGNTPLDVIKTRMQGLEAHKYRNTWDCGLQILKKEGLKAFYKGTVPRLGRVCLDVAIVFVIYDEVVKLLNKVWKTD

| SMILES | lactate production (absolute amount of lactate per media volume) (PC-3M cells [1]) | ROS synthesis (normal PNT2-C2 cells) | cell cycle phase distribution (PC-3M cells [2]) | survival of cancer cells under stress conditions with extracellular citrate ([3]; 200 μM citrate) | mCiC mRNA expression (mCiC mRNA) | reversibility of gluconate inhibition of citrate-induced current ([4]; PC-3M cells, 10 mM gluconate) | citrate-induced current in the presence of gluconate ([4]; PC-3M cells, 10 mM gluconate, 10 mM citrate) | effect of repeated application of gluconate on citrate-induced current ([4]; repeated application) | pmCiC mRNA expression (pmCiC mRNA) | reversibility of the reduction of citrate-induced current (pmCiC; citrate applied again after gluconate removal from the media) | citrate-induced current in the presence of gluconate (pmCiC; oocytes injected with pmCiC cDNA, gluconate applied extracellularly) | citrate-induced current in the presence of gluconate (benign PNT2-C2 cells) | survival of cells in the presence of extracellular citrate and gluconate ([3]; 200 μM citrate, 48 h and 72 h) | cell survival with gluconate in the absence of extracellular citrate ([3]; no citrate) |
| --- | --- | --- | --- | --- | --- | --- | --- | --- | --- | --- | --- | --- | --- | --- |
| O=C(O)CC(O)(CC(=O)O)C(=O)O [citrate] | unaffected | did not affect ROS synthesis | sharp increase in the G2/M phase | increases survival |  |  |  |  |  |  |  |  |  |  |
| O=C(O)[C@H](O)[C@@H](O)[C@H](O)[C@H](O)CO [gluconate] |  |  |  |  | significantly increased | irreversible | decreased | further citrate-induced current reduction | significantly increased | irreversible | significantly decreased | decreased | protective effect of extracellular citrate is abolished | no effect on cell survival |
